In patent US9573969B2, “Compounds and compositions as kinase inhibitors” (NOVARTIS AG, priority 2014, dated 2017):
pIC50: −log10 of the molar value. Converted amounts (≈) assume the structure as drawn. Read-outs that look alike come from different tables or passages of the source.

How the values were obtained:
C-Raf = target: T1, C-Raf (Homo sapiens, UniProt P04049, Y340E/Y341E); experiment: In Vitro Raf Activity Determination (Alpha Screen, phosphorylation of kinase dead MEK1); format: biochemical
T1 construct: His tag (implied by nickel chromatography) and/or StrepII tag; made in house; host or cells: Sf9 insect cells (baculovirus) for CRAF and h14-3-3 zeta; E. coli for MEK1
T1 sequence (P04049 whole entry Y340E/Y341E): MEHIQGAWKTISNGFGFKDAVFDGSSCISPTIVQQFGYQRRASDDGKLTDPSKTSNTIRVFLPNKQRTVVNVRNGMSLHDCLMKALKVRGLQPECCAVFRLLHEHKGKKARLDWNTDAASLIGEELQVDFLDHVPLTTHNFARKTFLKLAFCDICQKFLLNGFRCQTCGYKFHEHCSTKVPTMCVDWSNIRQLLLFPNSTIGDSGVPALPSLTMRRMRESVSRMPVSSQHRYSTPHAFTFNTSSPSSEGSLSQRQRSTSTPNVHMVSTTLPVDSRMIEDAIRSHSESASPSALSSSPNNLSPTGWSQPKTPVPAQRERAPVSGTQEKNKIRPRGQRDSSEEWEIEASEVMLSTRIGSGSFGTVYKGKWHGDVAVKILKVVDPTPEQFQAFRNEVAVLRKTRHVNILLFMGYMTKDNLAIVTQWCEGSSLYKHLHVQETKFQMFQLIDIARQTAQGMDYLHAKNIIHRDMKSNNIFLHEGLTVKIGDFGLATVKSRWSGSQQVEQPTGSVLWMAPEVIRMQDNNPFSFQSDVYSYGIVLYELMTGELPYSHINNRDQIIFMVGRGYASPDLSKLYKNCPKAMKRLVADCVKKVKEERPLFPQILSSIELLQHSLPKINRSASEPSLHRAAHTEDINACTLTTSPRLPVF
T1 sequence (P63104 whole entry partner): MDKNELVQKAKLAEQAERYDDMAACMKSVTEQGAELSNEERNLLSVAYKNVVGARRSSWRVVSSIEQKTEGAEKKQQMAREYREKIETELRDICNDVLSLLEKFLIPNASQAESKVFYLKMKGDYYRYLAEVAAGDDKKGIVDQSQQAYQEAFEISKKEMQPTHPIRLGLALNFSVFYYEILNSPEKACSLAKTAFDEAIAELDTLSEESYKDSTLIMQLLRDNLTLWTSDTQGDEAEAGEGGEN
From the text: CRAF cDNA was subcloned as full length protein, with Y340E and Y341E activating mutations, into a baculovirus expression vector for Sf9 insect cell expression. h14-3-3 zeta cDNA was subcloned into a baculovirus expression vector for SF9 insect cell expression. Sf9 cells co-expressing both proteins were lysed and subjected to immobilized nickel chromatography and eluted with Imidazole. A second column (StrepII binding column) was used and eluted with desthiobiotin. Protein Tags were removed using Prescission enzyme and the protein was further purified using a flowthrough step to remove tags.
C-Raf TR refers to a truncated C-Raf protein, a Δ1-324 deletion mutant. C-Raf FL refers to the full-length C-Raf protein.
Full length MEK1 with an inactivating K97R ATP binding site mutation is utilized as a RAF substrate. The MEK1 cDNA was subcloned with an N-terminal (his)6 tag into a vector for E. Coli expression. The MEK1 substrate was purified from E. Coli lysate by nickel affinity chromatography followed by anion exchange. The final MEK1 preparation was biotinylated (Pierce EZ-Link Sulfo-NHS-LC-Biotin) and concentrated.
Assay Materials: Assay buffer is 50 mM Tris, pH 7.5, 15 mM MgCl2, 0.01% Bovine Serum Albumin (BSA) and 1 mM dithiothreitol (DTT); Stop buffer is 60 mM ethylenediaminetetraacetic acid (EDTA) and 0.01% Tween® 20; b-Raf (V600E), active; biotinylated Mek, kinase dead; Alpha Screen detection kit (available from PerkinElmer™ #6760617R); Anti phospho-MEK1/2 (available from Cell Signaling Technology, Inc. #9121); 384 well low volume assay plates (White Greiner® plates).
Assay conditions: b-Raf (V600E) approximately 4 pM; c-Raf approximately 4 nM; biotinylated Mek, kinase dead approximately 10 nM; ATP 10 μM for BRAF (V600E) and 1 μM for CRAF; Pre-incubation time with compounds 60 minutes at room temperature; Reaction time 1 or 3 hours at room temperature.
Assay protocol: Raf and biotinylated Mek (kinase dead) were combined at 2× final concentrations in assay buffer (50 mM Tris, pH 7.5, 15 mM MgCl2, 0.01% BSA and 1 mM DTT) and dispensed […] per well in assay plates (Greiner white 384 well assay plates #781207) containing […] of 40× of a Raf kinase inhibitor test compound diluted in 100% DMSO. The plate was incubated for 60 minutes at room temperature. The Raf kinase activity reaction was started by the addition of […] per well of 2×ATP diluted in assay buffer. After 3 hours (b-Raf(V600E)) or 1 hour (c-Raf). The reactions were stopped and the phosphorylated product was measured using a rabbit anti-p-MEK (Cell Signaling, #9121) antibody and the Alpha Screen IgG (ProteinA) detection Kit (PerkinElmer #6760617R), by the addition of […] to the well of a mixture of the antibody (1:2000 dilution) and detection beads (1:2000 dilution of both beads) in Stop/bead buffer (25 mM EDTA, 50 mM Tris, pH 7.5, 0.01% Tween20). The additions were carried out under dark conditions to protect the detection beads from light. A lid was placed on top of the plate and incubated for 1 hour at room temperature, after which the luminescence was read on a PerkinElmer Envision instrument. The concentration of each compound for 50% inhibition (IC50) was calculated by non-linear regression using XL Fit data analysis software.

[1] = high throughput solubility assay; format: physicochemical; details: for solubility: buffer solution, thermodynamic from solid
Description: Solubility of the compounds of the invention was assessed in a high throughput solubility assay: compounds were received as 10 mM DMSO solutions. The DMSO stock solution was then transferred into a microtiter plate. The DMSO solvent was dried with a solvent evaporator (GeneVac). After the addition of buffer solution (pH 6.8, pH 4.0 or FaSSIF), the plate was sealed and shaken for 16-24 hours at room temperature. The plate was centrifuged for phase separation and the supernatant quantified by a RapidFire 365 High-throughput MS System (Agilant) coupled with a mass spectrometer (Sciex), using a calibration curve constructed with the same DMSO stock solution. Solubility results (μM) are obtained in triplicate.

[2] = c-Raf approximately 4 nM, ATP 1 μM, pre-incubation 60 minutes, reaction 1 hour at room temperature, read-out: C-Raf
[3] = phosphate Example itself, buffer (pH 6.8, pH 4.0 or FaSSIF) not given, 16-24 hours at room temperature

Structure (SMILES) | pIC50 (C-Raf; read-out: inhibitory efficacy for C-Raf) | improvement of solubility compared with the corresponding non-phosphate molecule ([1]; 874 μM versus 18 μM) | solubility ([1]; buffer not stated) [µM] | pIC50 (C-Raf; [2]) | solubility [1, 3] [µM]
Cc1ccc(NC(=O)c2ccnc(C(F)(F)F)c2)cc1-c1cc(OCCOP(=O)(O)O)nc(N2CCOCC2)c1 [Example 1, 2-((4-(2-methyl-5-(2-(trifluoromethyl)isonicotinamido)phenyl)-6-morpholinopyridin-2-yl)oxy)ethyl dihydrogen phosphate] | 10.00 | greater than 48 fold | 874 |  | 
Cc1ccc(NC(=O)c2cccc(C(F)(F)F)c2)cc1-c1cc(OCCOP(=O)(O)O)nc(N2CCOC[C@H]2C)c1 [Example 2, (R)-2-((4-(2-methyl-5-(3-(trifluoromethyl)benzamido)phenyl)-6-(3-methylmorpholino)pyridin-2-yl)oxy)ethyl dihydrogen phosphate] |  |  |  | 8.22 | < 1000
Cc1ncc(NC(=O)c2cccc(C(F)(F)F)c2)cc1-c1cc(OCCOP(=O)(O)O)nc(N2CCOC[C@H]2C)c1 [Example 4, (R)-2-((2-methyl-6′-(3-methylmorpholino)-5-(3-(trifluoromethyl)-benzamido)-[3,4′-bipyridin]-2′-yl)oxy)-ethyl dihydrogen phosphate] |  |  |  | 9.15 | 617
Cc1ccc(NC(=O)c2ccnc(C(C)(C)F)c2)cc1-c1cc(OCCOP(=O)(O)O)nc(N2CCOCC2)c1 [Example 9, 2-((4-(5-(2-(2-fluoropropan-2-yl)isonicotinamido)-2-methylphenyl)-6-morpholinopyridin-2-yl)oxy)ethyl dihydrogen phosphate] |  |  |  | 9.30 | 841
Cc1ccc(NC(=O)c2ccnc(C(C)(C)F)c2)cc1-c1cc(OCCOP(=O)(O)O)nc(N2CCOC[C@H]2C)c1 [Example 11, (R)-2-((4-(5-(2-(2-fluoropropan-2-yl)isonicotinamido)-2-methylphenyl)-6-(3-methylmorpholino)pyridin-2-yl)oxy)ethyl dihydrogen phosphate] |  |  |  | 8.70 | < 1000
Cc1ccc(NC(=O)c2ccnc(C(F)(F)F)c2)cc1-c1cc(OCCOP(=O)(O)O)nc(N2CCOC[C@H]2C)c1 [Example 12, (R)-2-((4-(2-methyl-5-(2-(trifluoromethyl)-isonicotinamido)phenyl)-6-(3-methyl-morpholino)pyridin-2-yl)oxy)ethyl dihydrogen phosphate] |  |  |  | 8.70 | 939
Cc1ccc(NC(=O)c2ccnc(C(C)(C)F)c2)cc1-c1cnc(OCCOP(=O)(O)O)c(N2CCOCC2)c1 [Example 15, 2-((5-(5-(2-(2-fluoropropan-2-yl)isonicotinamido)-2-methylphenyl)-3-morpholinopyridin-2-yl)oxy)ethyl dihydrogen phosphate] |  |  |  | 9.40 | 936
Cc1ccc(NC(=O)c2cccc(C(F)(F)F)c2)cc1-c1cnc(OCCOP(=O)(O)O)c(N2CCOCC2)c1 [Example 16, 2-((5-(2-methyl-5-(3-(trifluoromethyl)benzamido)phenyl)-3-morpholinopyridin-2-yl)oxy)ethyl dihydrogen phosphate] |  |  |  | 9.00 | < 1000
Cc1ccc(NC(=O)c2ccnc(C(F)(F)F)c2)cc1-c1cc(OCCO)nc(N2CCOCC2)c1 [N-(3-(2-(2-hydroxyethoxy)-6-morpholinopyridin-4-yl)-4-methylphenyl)-2-(trifluoromethyl)isonicotinamide, reference compound] |  |  | 18 (≈ 9.04 µg/mL) |  | 

More lines, now with the values ahead:

pIC50 (C-Raf; read-out: inhibitory efficacy for C-Raf) | improvement of solubility compared with the corresponding non-phosphate molecule ([1]; 874 μM versus 18 μM) | solubility ([1]; buffer not stated) [µM] | pIC50 (C-Raf; [2]) | solubility [1, 3] [µM] | Structure (SMILES)
 |  |  | 10.62 | 987 | Cc1ccc(NC(=O)c2cc(C(F)(F)F)ccn2)cc1-c1cc(OC[C@@H](O)COP(=O)(O)O)nc(N2CCOCC2)c1 [Example 3, (R)-2-hydroxy-3-((4-(2-methyl-5-(4-(trifluoromethyl)picolinamido)phenyl)-6-morpholinopyridin-2-yl)oxy)propyl dihydrogen phosphate]
 |  |  | 10.00 | 725 | Cc1ncc(NC(=O)c2cccc(C(F)(F)F)c2)cc1-c1cc(OCCOP(=O)(O)O)nc(N2CCOCC2)c1 [Example 5, 2-((2-methyl-6′-morpholino-5-(3-(trifluoromethyl)benz amido)-[3,4′-bipyridin]-2′-yl)oxy)ethyl dihydrogen phosphate]
 |  |  | 9.52 | 675 | Cc1ccc(NC(=O)c2ccnc(C(C)(F)F)c2)cc1-c1cc(OCCOP(=O)(O)O)nc(N2CCOC[C@H]2C)c1 [Example 6, (R)-2-((4-(5-(2-(1,1-difluoroethyl)isonicotin amido)-2-methylphenyl)-6-(3-methylmorpholino)pyridin-2-yl)oxy)ethyl dihydrogen phosphate]
 |  |  | 10.30 | 124 | Cc1ccc(NC(=O)c2cccc(C(F)(F)F)c2)cc1-c1cc(OCCOP(=O)(O)O)nc(N2CCOCC2)c1 [Example 7, 2-((4-(2-methyl-5-(3-(trifluoromethyl)benzamido)phenyl)-6-morpholinopyridin-2-yl)oxy)ethyl dihydrogen phosphate]
 |  |  | 9.52 | 635 | Cc1ccc(NC(=O)c2ccnc(C(C)(F)F)c2)cc1-c1cc(OCCOP(=O)(O)O)nc(N2CCOCC2)c1 [Example 10, 2-((4-(5-(2-(1,1-difluoroethyl)isonicotin amido)-2-methylphenyl)-6-morpholinopyridin-2-yl)oxy)ethyl dihydrogen phosphate]
 |  |  | 10.52 | 792 | Cc1ccc(NC(=O)c2ccnc(C(F)(F)F)c2)cc1-c1cnc(OCCOP(=O)(O)O)c(N2CCOCC2)c1 [Example 13, 2-((5-(2-methyl-5-(2-(trifluoromethyl)isonicotinamido)phenyl)-3-morpholinopyridin-2-yl)oxy)ethyl dihydrogen phosphate]
 |  |  | 10.40 | 897 | Cc1ccc(NC(=O)c2ccnc(C(C)(F)F)c2)cc1-c1cnc(OCCOP(=O)(O)O)c(N2CCOCC2)c1 [Example 14, 2-((5-(5-(2-(1,1-difluoroethyl)isonicotin amido)-2-methylphenyl)-3-morpholinopyridin-2-yl)oxy)ethyl dihydrogen phosphate]
 |  |  | 10.70 | 253 | Cc1ccc(NC(=O)c2cc(C(F)(F)F)ccn2)cc1-c1cc(OCCOP(=O)(O)O)nc(N2CCOCC2)c1 [Example 17, 2-((4-(2-methyl-5-(4-(trifluoromethyl)picolin amido)phenyl)-6-morpholinopyridin-2-yl)oxy)ethyl dihydrogen phosphate]
 |  |  | 10.70 |  | Cc1ncc(NC(=O)c2cccc(C(F)(F)F)c2)cc1-c1cnc(OCCOP(=O)(O)O)c(N2CCOCC2)c1 [Example 18, 2-((2′-methyl-5-morpholino-5′-(3-(trifluoromethyl)benzamido)-[3,3′-bipyridin]-6-yl)oxy)ethyl dihydrogen phosphate]
